Measured values published in PubChem BioAssay (NCI).
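The compound was tested at five concentrations on cells cultured in 96-well plates, with a 48-hour exposure period. At the GI50, growth is halved. TGI denotes the concentration required for complete inhibition of growth.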

Key:
Experiment in all cases: NCI tumour cell line growth inhibition, 48 h
786-0 renal = tested on: 786-0 renal
A549 NSCLC = tested on: A549 NSCLC
ACHN renal = tested on: ACHN renal
BT-549 breast = tested on: BT-549 breast
CAKI-1 renal = tested on: CAKI-1 renal
CCRF-CEM leukemia = tested on: CCRF-CEM leukemia
COLO 205 colon = tested on: COLO 205 colon
DU-145 prostate = tested on: DU-145 prostate
EKVX NSCLC = tested on: EKVX NSCLC
HCC-2998 colon = tested on: HCC-2998 colon
HCT-116 colon = tested on: HCT-116 colon
HCT-15 colon = tested on: HCT-15 colon
HL-60(TB) leukemia = tested on: HL-60(TB) leukemia
HOP-62 NSCLC = tested on: HOP-62 NSCLC
HOP-92 NSCLC = tested on: HOP-92 NSCLC
HS 578T breast = tested on: HS 578T breast
HT29 colon = tested on: HT29 colon
K-562 leukemia = tested on: K-562 leukemia
KM12 colon = tested on: KM12 colon
LOX IMVI melanoma = tested on: LOX IMVI melanoma
M14 melanoma = tested on: M14 melanoma
MALME-3M melanoma = tested on: MALME-3M melanoma
MCF7 breast = tested on: MCF7 breast
MDA-MB-231 breast = tested on: MDA-MB-231 breast
MDA-MB-435 = tested on: MDA-MB-435
MOLT-4 leukemia = tested on: MOLT-4 leukemia
NCI-H226 lung = tested on: NCI-H226 lung
NCI-H23 lung = tested on: NCI-H23 lung
NCI-H460 lung = tested on: NCI-H460 lung
OVCAR-3 ovarian = tested on: OVCAR-3 ovarian
OVCAR-4 ovarian = tested on: OVCAR-4 ovarian
OVCAR-5 ovarian = tested on: OVCAR-5 ovarian
OVCAR-8 ovarian = tested on: OVCAR-8 ovarian
PC-3 prostate = tested on: PC-3 prostate
RPMI-8226 leukemia = tested on: RPMI-8226 leukemia
RXF 393 renal = tested on: RXF 393 renal
SF-268 CNS = tested on: SF-268 CNS
SF-295 CNS = tested on: SF-295 CNS
SF-539 CNS = tested on: SF-539 CNS
SK-OV-3 ovarian = tested on: SK-OV-3 ovarian
SN12C renal = tested on: SN12C renal
SNB-19 CNS = tested on: SNB-19 CNS
SNB-75 CNS = tested on: SNB-75 CNS
SR leukemia = tested on: SR leukemia
SW-620 colon = tested on: SW-620 colon
T-47D breast = tested on: T-47D breast
TK-10 renal = tested on: TK-10 renal
U251 CNS = tested on: U251 CNS
UACC-257 melanoma = tested on: UACC-257 melanoma
UACC-62 melanoma = tested on: UACC-62 melanoma
UO-31 renal = tested on: UO-31 renal
A498 renal = tested on: A498 renal
IGROV1 ovarian = tested on: IGROV1 ovarian
NCI-H522 lung = tested on: NCI-H522 lung
NCI/ADR-RES ovarian = tested on: NCI/ADR-RES ovarian
SK-MEL-2 melanoma = tested on: SK-MEL-2 melanoma
SK-MEL-28 melanoma = tested on: SK-MEL-28 melanoma
SK-MEL-5 melanoma = tested on: SK-MEL-5 melanoma

SMILES: O=S(=O)(c1ccccc1)c1ccc(-c2nc(-c3ccc4c(c3)Sc3ccccc3S4)cs2)cc1
- TGI (786-0 renal): 45.1 µM
- TGI (A549 NSCLC): > 100 µM
- TGI (ACHN renal): > 100 µM
- TGI (BT-549 breast): 91.7 µM
- TGI (CAKI-1 renal): > 100 µM
- TGI (CCRF-CEM leukemia): > 100 µM
- TGI (COLO 205 colon): > 100 µM
- TGI (DU-145 prostate): > 100 µM
- TGI (EKVX NSCLC): > 100 µM
- TGI (HCC-2998 colon): > 100 µM
- TGI (HCT-116 colon): > 100 µM
- TGI (HCT-15 colon): > 100 µM
- TGI (HL-60(TB) leukemia): > 100 µM
- TGI (HOP-62 NSCLC): 45.5 µM
- TGI (HOP-92 NSCLC): 62.9 µM
- TGI (HS 578T breast): > 100 µM
- TGI (HT29 colon): > 100 µM
- TGI (K-562 leukemia): > 100 µM
- TGI (KM12 colon): > 100 µM
- TGI (LOX IMVI melanoma): > 100 µM
- TGI (M14 melanoma): > 100 µM
- TGI (MALME-3M melanoma): > 100 µM
- TGI (MCF7 breast): > 100 µM
- TGI (MDA-MB-231 breast): > 100 µM
- TGI (MDA-MB-435): > 100 µM
- TGI (MOLT-4 leukemia): > 100 µM
- TGI (NCI-H226 lung): > 100 µM
- TGI (NCI-H23 lung): 36.1 µM
- TGI (NCI-H460 lung): > 100 µM
- TGI (OVCAR-3 ovarian): > 100 µM
- TGI (OVCAR-4 ovarian): > 100 µM
- TGI (OVCAR-5 ovarian): > 100 µM
- TGI (OVCAR-8 ovarian): > 100 µM
- TGI (PC-3 prostate): > 100 µM
- TGI (RPMI-8226 leukemia): > 100 µM
- TGI (RXF 393 renal): 35.3 µM
- TGI (SF-268 CNS): > 100 µM
- TGI (SF-295 CNS): 47.4 µM
- TGI (SF-539 CNS): > 100 µM
- TGI (SK-OV-3 ovarian): 41.9 µM
- TGI (SN12C renal): > 100 µM
- TGI (SNB-19 CNS): > 100 µM
- TGI (SNB-75 CNS): 25.3 µM
- TGI (SR leukemia): > 100 µM
- TGI (SW-620 colon): > 100 µM
- TGI (T-47D breast): > 100 µM
- TGI (TK-10 renal): 73.6 µM
- TGI (U251 CNS): > 100 µM
- TGI (UACC-257 melanoma): > 100 µM
- TGI (UACC-62 melanoma): > 100 µM
- TGI (UO-31 renal): > 100 µM

SMILES: CC12O[C@H](C[C@@H](OC(=O)CCC(=O)O)[C@H]1O)n1c3ccccc3c3c4c(c5c6ccccc6n2c5c31)C(=O)NC4=O
- GI50 (786-0 renal): 2.14 µM
- TGI (786-0 renal): 11.3 µM
- GI50 (A498 renal): 0.168 µM
- TGI (A498 renal): 1.15 µM
- GI50 (A549 NSCLC): 1.55 µM
- TGI (A549 NSCLC): > 50 µM
- GI50 (ACHN renal): 0.727 µM
- TGI (ACHN renal): > 50 µM
- GI50 (BT-549 breast): 1.02 µM
- TGI (BT-549 breast): 7.68 µM
- GI50 (CCRF-CEM leukemia): 1.57 µM
- TGI (CCRF-CEM leukemia): 13.4 µM
- GI50 (COLO 205 colon): 0.902 µM
- TGI (COLO 205 colon): 5.26 µM
- GI50 (EKVX NSCLC): 7.28 µM
- TGI (EKVX NSCLC): > 50 µM
- GI50 (HCC-2998 colon): 5.64 µM
- TGI (HCC-2998 colon): 15.1 µM
- GI50 (HCT-116 colon): 1.5 µM
- TGI (HCT-116 colon): 9.8 µM
- GI50 (HCT-15 colon): 0.767 µM
- TGI (HCT-15 colon): 16.4 µM
- GI50 (HL-60(TB) leukemia): 9.62 µM
- TGI (HL-60(TB) leukemia): 42.4 µM
- GI50 (HOP-62 NSCLC): 0.834 µM
- TGI (HOP-62 NSCLC): 10.7 µM
- GI50 (HOP-92 NSCLC): 0.738 µM
- TGI (HOP-92 NSCLC): 4.77 µM
- GI50 (HS 578T breast): 2.43 µM
- TGI (HS 578T breast): 28.4 µM
- GI50 (HT29 colon): 1.45 µM
- TGI (HT29 colon): 17.7 µM
- GI50 (IGROV1 ovarian): 0.664 µM
- TGI (IGROV1 ovarian): 38.8 µM
- GI50 (K-562 leukemia): 5.07 µM
- TGI (K-562 leukemia): > 50 µM
- GI50 (KM12 colon): 0.285 µM
- TGI (KM12 colon): 11.5 µM
- GI50 (LOX IMVI melanoma): 1.47 µM
- TGI (LOX IMVI melanoma): 7.88 µM
- GI50 (M14 melanoma): 0.239 µM
- TGI (M14 melanoma): 6.54 µM
- GI50 (MALME-3M melanoma): 0.2 µM
- TGI (MALME-3M melanoma): 2.36 µM
- GI50 (MCF7 breast): 1.25 µM
- TGI (MCF7 breast): 10.9 µM
- GI50 (MDA-MB-231 breast): 6.3 µM
- TGI (MDA-MB-231 breast): 16.2 µM
- GI50 (MDA-MB-435): 0.708 µM
- TGI (MDA-MB-435): 7.08 µM
- GI50 (MOLT-4 leukemia): 0.949 µM
- TGI (MOLT-4 leukemia): 18 µM
- GI50 (NCI-H226 lung): 0.738 µM
- TGI (NCI-H226 lung): 9.71 µM
- GI50 (NCI-H23 lung): 1.13 µM
- TGI (NCI-H23 lung): 20.3 µM
- GI50 (NCI-H460 lung): 1.46 µM
- TGI (NCI-H460 lung): 12.2 µM
- GI50 (NCI-H522 lung): 0.602 µM
- TGI (NCI-H522 lung): 6.92 µM
- GI50 (NCI/ADR-RES ovarian): 6.24 µM
- TGI (NCI/ADR-RES ovarian): 40.8 µM
- GI50 (OVCAR-3 ovarian): 1.32 µM
- TGI (OVCAR-3 ovarian): 14 µM
- GI50 (OVCAR-4 ovarian): 5.77 µM
- TGI (OVCAR-4 ovarian): > 50 µM
- GI50 (OVCAR-5 ovarian): 7.87 µM
- TGI (OVCAR-5 ovarian): > 50 µM
- GI50 (OVCAR-8 ovarian): 2.65 µM
- TGI (OVCAR-8 ovarian): > 50 µM
- GI50 (PC-3 prostate): 3.44 µM
- TGI (PC-3 prostate): > 50 µM
- GI50 (RPMI-8226 leukemia): 5.98 µM
- TGI (RPMI-8226 leukemia): 24.3 µM
- GI50 (RXF 393 renal): 0.598 µM
- TGI (RXF 393 renal): 4.16 µM
- GI50 (SF-268 CNS): 3.21 µM
- TGI (SF-268 CNS): 23.9 µM
- GI50 (SF-295 CNS): 1.5 µM
- TGI (SF-295 CNS): 7.6 µM
- GI50 (SF-539 CNS): 1.22 µM
- TGI (SF-539 CNS): 3.97 µM
- GI50 (SK-MEL-2 melanoma): 0.464 µM
- TGI (SK-MEL-2 melanoma): 16.5 µM
- GI50 (SK-MEL-28 melanoma): 1.51 µM
- TGI (SK-MEL-28 melanoma): 19.8 µM
- GI50 (SK-MEL-5 melanoma): 1.41 µM
- TGI (SK-MEL-5 melanoma): 6.69 µM
- GI50 (SK-OV-3 ovarian): 0.323 µM
- TGI (SK-OV-3 ovarian): 3.44 µM
- GI50 (SN12C renal): 2.47 µM
- TGI (SN12C renal): 24.5 µM
- GI50 (SNB-19 CNS): 3.62 µM
- TGI (SNB-19 CNS): 38.8 µM
- GI50 (SNB-75 CNS): 1.07 µM
- TGI (SNB-75 CNS): 7.41 µM
- GI50 (SR leukemia): 0.505 µM
- TGI (SR leukemia): 10.5 µM
- GI50 (SW-620 colon): 1.43 µM
- TGI (SW-620 colon): 13.4 µM
- GI50 (T-47D breast): 0.83 µM
- TGI (T-47D breast): > 50 µM
- GI50 (TK-10 renal): 0.411 µM
- TGI (TK-10 renal): 10.9 µM
- GI50 (U251 CNS): 5.71 µM
- TGI (U251 CNS): 17.1 µM
- GI50 (UACC-257 melanoma): 1.52 µM
- TGI (UACC-257 melanoma): 10.6 µM
- GI50 (UACC-62 melanoma): 0.585 µM
- TGI (UACC-62 melanoma): 7.2 µM
- GI50 (UO-31 renal): 0.201 µM
- TGI (UO-31 renal): 3.55 µM
